We go through 2 molecules from patent US20250320506A1, “ULTR[…] M[…]-FREE […] CASCADED AMP[…] POSITIVE FEEDBACK” (Northwestern University, priority 2019, published 2025).

The subject of assay [1] is cell-free protein synthesis. Description: titration of analyte against an unregulated reporter plasmid (pT7-sfGFP) in a cell-free gene expression reaction. The format is biochemical, E. coli. To be noted: 100 μM CuSO4; transcription and translation in vitro. The source says: FIG. 4A-D. FIG. 4 illustrates various aspects of the biosensors of the present disclosure. (A) The “enriched” extract that contains the allosteric transcription factor can be mixed against a “blank” unenriched extract to modulate the concentration of the transcription factor in the reaction. (B) For tighter control and specificity of a cascaded system, if T7 RNA polymerase is used to drive expression of the allosteric transcription factor in the host strain of extract, an engineered variant of T7 RNAP may be used as the output of the regulated promoter. Exemplary T7 RNAP mutants are illustrated. […] The E. coli RNAP is used to express four T7 RNAP variants from a mock sensor plasmid (5 nM) that contains the consensus E. coli promoter J23119. The corresponding reporter plasmid is added at 5 nM. The kinetics of T7 RNAP synthesis lead to a time delay of about 20-30 minutes relative to a reaction that uses purified WT T7 RNAP. […] Reporter yields are from triplicates of four-hour sfGFP yields on a plate reader at 30° C. […]
A series of tuning experiments are next used to optimize the sensor. […] This experiment is an isothermal cell-free gene expression reaction held at 30° C. in a plate reader for ˜4 hours using an established set of physiochemical conditions to maximize protein production in general. […]

Assay [2] relates to lead sensor. Description: crosstalk between four metal-sensing aTFs using cell-free response. The format is biochemical. The note with it: heatmap. The source says:
FIG. 21. Design of mitigating cross-talk of sensors. Experimental measurement of crosstalk between four metal-sensing aTFs using cell-free response. Heatmap is colored more brightly to indicate stronger fluorescent signal.

With `O=S(=O)([O-])[O-].[Cu+2]` [CuSO4], in assay [1], the “effect on cell-free protein synthesis” value was “shuts down cell-free protein synthesis”.
Turning to `[Cd]` [cadmium], the “crosstalk (fluorescent signal) of metal-sensing aTF sensor with non-cognate metal” value in assay [2] was “crosstalk for the lead sensor with cadmium”.
